# pIC50: −log10 of the molar value. Activity calls are given as the source filed them. The calls are words filed in the database; no cut-off is given here.
# Assays:
# [1] = molecular target: T1, Matrix metalloproteinase-9 (Homo sapiens, UniProt P14780); test: Inhibition of MMP9 in human U2OS cells at 5 umol/L by peptide microarray-based fluorescence assay; format: cell-based; details: dose 5.0 µmol/L
# Collagenase 3 = Collagenase 3 (Homo sapiens, UniProt P45452); test: Inhibition of MMP13 in human U2OS cells at 5 umol/L by peptide microarray-based fluorescence assay; format: cell-based; details: dose 5.0 µmol/L
# [2] = molecular target: T2, Matrilysin (Homo sapiens) (UniProt P09237); test: Inhibition of MMP7 in human U2OS cells at 5 umol/L by peptide microarray-based fluorescence assay; format: cell-based; details: dose 5.0 µmol/L
# T2 sequence (whole entry): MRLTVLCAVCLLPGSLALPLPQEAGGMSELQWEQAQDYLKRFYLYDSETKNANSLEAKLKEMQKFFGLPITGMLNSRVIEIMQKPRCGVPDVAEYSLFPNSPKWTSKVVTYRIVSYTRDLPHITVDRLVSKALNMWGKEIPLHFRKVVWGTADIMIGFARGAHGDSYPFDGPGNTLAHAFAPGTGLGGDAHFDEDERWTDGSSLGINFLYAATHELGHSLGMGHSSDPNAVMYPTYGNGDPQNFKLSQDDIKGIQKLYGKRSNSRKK
# [3] = molecular target: 72 kDa type IV collagenase (Homo sapiens, UniProt P08253); test: Inhibition of MMP2 in human U2OS cells at 5 umol/L by peptide microarray-based fluorescence assay; format: cell-based; details: dose 5.0 µmol/L
# 72 kDa type IV collagenase, sequence (P08253 110-660 limits assumed): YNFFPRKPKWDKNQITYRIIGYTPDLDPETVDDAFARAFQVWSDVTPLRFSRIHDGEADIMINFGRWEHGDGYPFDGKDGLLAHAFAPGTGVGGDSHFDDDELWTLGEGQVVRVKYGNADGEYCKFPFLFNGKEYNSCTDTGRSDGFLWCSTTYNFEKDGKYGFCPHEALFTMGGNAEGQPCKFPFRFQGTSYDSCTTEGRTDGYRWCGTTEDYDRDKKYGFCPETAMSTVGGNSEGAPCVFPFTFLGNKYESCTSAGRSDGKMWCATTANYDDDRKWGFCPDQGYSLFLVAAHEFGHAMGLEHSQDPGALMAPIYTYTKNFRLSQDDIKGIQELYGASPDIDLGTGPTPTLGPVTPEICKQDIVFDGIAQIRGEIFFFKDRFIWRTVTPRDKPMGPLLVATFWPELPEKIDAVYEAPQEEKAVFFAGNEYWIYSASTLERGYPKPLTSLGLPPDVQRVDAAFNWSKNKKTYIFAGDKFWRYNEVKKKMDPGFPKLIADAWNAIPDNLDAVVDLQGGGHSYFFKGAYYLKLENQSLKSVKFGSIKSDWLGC
# [4] = molecular target: T3, Interstitial collagenase (Homo sapiens) (UniProt P03956); test: Inhibition of MMP1 in human U2OS cells at 5 umol/L by peptide microarray-based fluorescence assay; format: cell-based; details: dose 5.0 µmol/L
# T3 sequence (whole entry): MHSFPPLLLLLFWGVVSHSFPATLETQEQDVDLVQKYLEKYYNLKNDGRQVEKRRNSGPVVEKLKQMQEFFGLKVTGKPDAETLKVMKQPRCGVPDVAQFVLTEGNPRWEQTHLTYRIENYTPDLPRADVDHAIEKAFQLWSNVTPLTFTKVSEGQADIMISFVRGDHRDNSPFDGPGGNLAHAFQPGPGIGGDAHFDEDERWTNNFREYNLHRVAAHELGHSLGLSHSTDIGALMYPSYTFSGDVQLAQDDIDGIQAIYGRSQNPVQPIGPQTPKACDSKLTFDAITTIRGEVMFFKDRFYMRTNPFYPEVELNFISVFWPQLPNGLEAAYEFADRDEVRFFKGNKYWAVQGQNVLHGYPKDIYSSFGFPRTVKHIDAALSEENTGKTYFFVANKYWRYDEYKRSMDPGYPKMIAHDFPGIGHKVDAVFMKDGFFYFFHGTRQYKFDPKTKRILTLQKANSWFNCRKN
# Stromelysin-1 = Stromelysin-1 (Homo sapiens, UniProt P08254); test: Inhibition of MMP3 in human U2OS cells at 5 umol/L by peptide microarray-based fluorescence assay; format: cell-based; details: dose 5.0 µmol/L
# Stromelysin-1, sequence (P08254 100-477 limits assumed): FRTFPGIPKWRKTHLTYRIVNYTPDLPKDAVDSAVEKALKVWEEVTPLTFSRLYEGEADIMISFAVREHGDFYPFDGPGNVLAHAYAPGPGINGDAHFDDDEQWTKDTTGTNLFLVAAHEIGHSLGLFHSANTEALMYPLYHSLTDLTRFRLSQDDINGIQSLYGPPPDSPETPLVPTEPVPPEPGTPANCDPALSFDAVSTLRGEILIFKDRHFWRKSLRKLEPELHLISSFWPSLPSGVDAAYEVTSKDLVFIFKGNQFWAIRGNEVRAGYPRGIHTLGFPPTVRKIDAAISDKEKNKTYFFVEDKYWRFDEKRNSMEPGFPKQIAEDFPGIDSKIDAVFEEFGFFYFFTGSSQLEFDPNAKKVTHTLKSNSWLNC
# [5] = molecular target: T1, Matrix metalloproteinase-9; test: Inhibition of MMP9 in human U2OS cells by peptide microarray-based fluorescence assay; format: cell-based
# [6] = Toxicity in human U2OS cells assessed as cell viability at 2.5 umol/L incubated for 24 hrs by MTT assay relative to control; format: cell-based; details: dose 2.5 µmol/L, read-out: Activity
# [7] = Toxicity in human HEK293T cells assessed as cell viability at 2.5 umol/L incubated for 24 hrs by MTT assay relative to control; format: cell-based, HEK-293T; details: dose 2.5 µmol/L, read-out: Activity
# U2OS [8] = test: Antitumor activity against human U2OS cells xenografted in NOD/SCID mouse assessed as inhibition of tumor growth at 30 ug, iv dosed once every 2 days for 6 days successively relative to control; format: functional; details: dose 30 µg, time 6 day
# U2OS [9] = test: Inhibition of cell migration of human U2OS cells at 2.5 umol/L incubated for 24 hrs by would healing assay; format: functional, cell-based; details: dose 2.5 µmol/L
# U2OS [10] = test: Antitumor activity against human U2OS cells xenografted in NOD/SCID mouse assessed as inhibition of growth of both primary and metastatic tumors at 30 ug, iv dosed once every 2 days for 6 days successively relative to control; format: functional, organism-based; details: dose 30.0 µg, time 6.0 day
# [11] = Toxicity in human HL7702 cells assessed as cell viability at 2.5 umol/L incubated for 24 hrs by MTT assay relative to control; format: cell-based, L02; details: dose 2.5 µmol/L, read-out: Activity
# [12] = Toxicity in human NCM460 cells assessed as cell viability at 2.5 umol/L incubated for 24 hrs by MTT assay relative to control; format: cell-based; details: dose 2.5 µmol/L, read-out: Activity
# [13] = Toxicity in Kunming mouse assessed as induction of adverse effect or tissue damage in major organs measured after 14 days; details: in vivo, 336 h, time 14 day
# [14] = Toxicity in Kunming mouse assessed as effect on body weight changes measured after 14 days; details: in vivo, 336 h, time 14 day
# [15] = molecular target: T3, Interstitial collagenase (Homo sapiens); test: Inhibition of MMP1 in human U2OS cells at 1 umol/L by peptide microarray-based fluorescence assay; format: cell-based; details: dose 1.0 µmol/L
# U2OS [16] = test: Antitumor activity against human U2OS cells xenografted in NOD/SCID mouse assessed as inhibition of distant organ metastasis at 30 ug, iv dosed once every 2 days for 6 days successively relative to control; format: functional, organism-based; details: dose 30.0 µg
# [17] = molecular target: T1, Matrix metalloproteinase-9; test: Inhibition of MMP9 in human U2OS cells at 1 umol/L by peptide microarray-based fluorescence assay; format: cell-based; details: dose 1.0 µmol/L
# [18] = Toxicity in human MDA-MB-231 cells assessed as cell viability at 2.5 umol/L incubated for 24 hrs by MTT assay relative to control; format: cell-based; details: dose 2.5 µmol/L, read-out: Activity
# U2OS [19] = test: Antitumor activity against human U2OS cells xenografted in NOD/SCID mouse assessed as time duration with 100% survival with at 30 ug, iv dosed once every 2 days for 6 days successively relative to control; format: functional; details: dose 30 µg, time 6 day
# [20] = Toxicity in human MCF7 cells assessed as cell viability at 2.5 umol/L incubated for 24 hrs by MTT assay relative to control; format: cell-based; details: dose 2.5 µmol/L, read-out: Activity
# [21] = Toxicity in human HCT-116 cells assessed as cell viability at 2.5 umol/L incubated for 24 hrs by MTT assay relative to control; format: cell-based; details: dose 2.5 µmol/L, read-out: Activity
# [22] = Toxicity in Kunming mouse assessed as effect on blood components measured after 14 days; details: in vivo, 336 h, time 14 day
# T1 sequence (P14780 whole entry): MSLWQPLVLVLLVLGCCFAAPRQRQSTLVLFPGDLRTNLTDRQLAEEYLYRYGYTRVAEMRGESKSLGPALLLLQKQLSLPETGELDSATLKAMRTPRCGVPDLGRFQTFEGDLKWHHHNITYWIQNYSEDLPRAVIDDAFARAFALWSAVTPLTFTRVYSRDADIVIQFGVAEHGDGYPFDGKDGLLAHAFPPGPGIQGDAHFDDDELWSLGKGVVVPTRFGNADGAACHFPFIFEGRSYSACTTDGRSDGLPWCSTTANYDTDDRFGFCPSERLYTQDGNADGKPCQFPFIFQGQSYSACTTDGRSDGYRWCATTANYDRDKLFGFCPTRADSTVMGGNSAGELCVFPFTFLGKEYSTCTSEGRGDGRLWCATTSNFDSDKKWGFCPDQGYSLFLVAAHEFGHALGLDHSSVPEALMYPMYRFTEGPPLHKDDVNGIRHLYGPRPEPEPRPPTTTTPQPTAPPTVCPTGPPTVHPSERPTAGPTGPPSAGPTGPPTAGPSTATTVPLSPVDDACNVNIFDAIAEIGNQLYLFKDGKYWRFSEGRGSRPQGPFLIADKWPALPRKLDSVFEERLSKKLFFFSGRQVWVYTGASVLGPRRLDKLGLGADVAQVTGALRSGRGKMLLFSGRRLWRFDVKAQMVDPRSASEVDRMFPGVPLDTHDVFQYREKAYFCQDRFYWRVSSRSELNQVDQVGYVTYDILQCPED
structure (smiles),measurement,setting,value
COc1ccc(-c2coc3cc(O[C@@H]4O[C@H](CO)[C@@H](O)[C@H](O)[C@H]4O)ccc3c2=O)cc1,inhibition,[1],> 50%
COc1ccc(-c2cc(=O)c3c(OC)c(OC)c(OC)cc3o2)cc1OC,inhibition,Collagenase 3,> 50%
same,inhibition,[2],> 50%
same,inhibition,[3],> 50%
same,inhibition,[4],> 50%
same,inhibition,Stromelysin-1,> 50%
O=c1c2cc(O)c(O)cc2oc2cc(O)c([C@@H]3O[C@H](CO)[C@@H](O)[C@H](O)[C@H]3O)c(O)c12 [MANGIFERIN],pIC50,[5],6.60
same,"viability at 24 h, 2.5 µM",[6],> 90%
same,"viability at 24 h, 2.5 µM",[7],> 90%
same,TGI,U2OS [8],35%
same,inhibition,U2OS [9],Active
same,inhibition,U2OS [10],Active
same,"viability at 24 h, 2.5 µM",[11],> 90%
same,"viability at 24 h, 2.5 µM",[12],> 90%
same,inhibition,[1],> 50%
same,Activity,[13],Non-Toxic
same,Activity,[14],Non-Toxic
same,inhibition,[4],> 50%
same,inhibition,[15],Active
same,inhibition,U2OS [16],Active
same,inhibition,[17],Active
same,"viability at 24 h, 2.5 µM",[18],> 90%
same,Survival,U2OS [19],41 days
same,"viability at 24 h, 2.5 µM",[20],> 90%
same,"viability at 24 h, 2.5 µM",[21],> 90%
same,Activity,[22],Non-Toxic
C=CC(C)(C)c1cc(/C=C/C(=O)c2ccc(O)cc2)c(OC)cc1O,inhibition,[4],> 50%

# From ChEMBL document CHEMBL5126637, “Discovery of Phenolic Matrix Metalloproteinase Inhibitors by Peptide Microarray for Osteosarcoma Treatment” (J Nat Prod, 2022)
